One block for each compound: values may come before it. Active and inactive are the calls of the source. The rule behind the calls is not given here.
Tests used:
[1] = target: Dual specificity mitogen-activated protein kinase kinase 1 (Homo sapiens, UniProt Q02750); assay: Inhibition of MEK1-mediated ERK1 phosphorylation using IPTTPITTYFFFK-5FAM-COOH as substrate by fluorescent polarization assay
[2] = system: COLO 205; assay: Cytotoxicity against human COLO205 cells after 72 hrs by MTS assay; settings: COLO 205, 72 h
[3] = system: A-375; assay: Cytotoxicity against human A375 cells after 72 hrs by MTS assay; settings: A-375, 72 h
[4] = Half life in human liver microsomes; format: ADME, Microsome
[5] = Half life in rat liver microsomes; format: ADME, Microsome
[6] = Clearance in rat at 1 mg/kg, iv and 5 mg/kg, po; format: ADME, organism-based; settings: in vivo
[7] = system: Rattus norvegicus; assay: Dose normalized AUC in rat at 1 mg/kg, iv and 5 mg/kg, po; format: ADME, organism-based; settings: in vivo
[8] = Volume of distribution at steady state in rat at 1 mg/kg, iv and 5 mg/kg, po; format: ADME, organism-based; settings: in vivo, read-out: Vdss
[9] = Oral bioavailability in rat at 5 mg/kg; format: ADME, organism-based; settings: in vivo
[10] = target: Tyrosine-protein kinase ABL1 (Homo sapiens) (UniProt P00519); assay: Inhibition of ABL1 at 10 uM
[11] = target: RAC-gamma serine/threonine-protein kinase (Homo sapiens) (UniProt Q9Y243); assay: Inhibition of AKT3 at 10 uM
Chain of RAC-gamma serine/threonine-protein kinase (Homo sapiens) (Q9Y243 whole entry): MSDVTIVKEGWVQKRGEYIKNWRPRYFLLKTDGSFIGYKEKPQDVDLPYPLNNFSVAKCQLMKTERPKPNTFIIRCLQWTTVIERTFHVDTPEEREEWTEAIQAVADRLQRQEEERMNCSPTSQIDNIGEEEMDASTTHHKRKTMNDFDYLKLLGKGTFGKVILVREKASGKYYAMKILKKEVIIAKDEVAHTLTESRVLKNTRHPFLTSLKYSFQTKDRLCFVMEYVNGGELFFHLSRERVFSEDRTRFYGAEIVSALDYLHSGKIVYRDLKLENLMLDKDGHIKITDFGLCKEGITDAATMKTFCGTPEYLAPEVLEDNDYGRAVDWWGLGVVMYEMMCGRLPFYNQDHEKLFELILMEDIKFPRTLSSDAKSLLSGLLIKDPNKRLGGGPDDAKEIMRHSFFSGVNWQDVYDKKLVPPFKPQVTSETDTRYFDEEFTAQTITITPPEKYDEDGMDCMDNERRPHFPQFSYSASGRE

[12] = target: RAF proto-oncogene serine/threonine-protein kinase (Homo sapiens) (UniProt P04049); assay: Inhibition of c-RAF at 10 uM
Chain of RAF proto-oncogene serine/threonine-protein kinase (Homo sapiens) (P04049 whole entry): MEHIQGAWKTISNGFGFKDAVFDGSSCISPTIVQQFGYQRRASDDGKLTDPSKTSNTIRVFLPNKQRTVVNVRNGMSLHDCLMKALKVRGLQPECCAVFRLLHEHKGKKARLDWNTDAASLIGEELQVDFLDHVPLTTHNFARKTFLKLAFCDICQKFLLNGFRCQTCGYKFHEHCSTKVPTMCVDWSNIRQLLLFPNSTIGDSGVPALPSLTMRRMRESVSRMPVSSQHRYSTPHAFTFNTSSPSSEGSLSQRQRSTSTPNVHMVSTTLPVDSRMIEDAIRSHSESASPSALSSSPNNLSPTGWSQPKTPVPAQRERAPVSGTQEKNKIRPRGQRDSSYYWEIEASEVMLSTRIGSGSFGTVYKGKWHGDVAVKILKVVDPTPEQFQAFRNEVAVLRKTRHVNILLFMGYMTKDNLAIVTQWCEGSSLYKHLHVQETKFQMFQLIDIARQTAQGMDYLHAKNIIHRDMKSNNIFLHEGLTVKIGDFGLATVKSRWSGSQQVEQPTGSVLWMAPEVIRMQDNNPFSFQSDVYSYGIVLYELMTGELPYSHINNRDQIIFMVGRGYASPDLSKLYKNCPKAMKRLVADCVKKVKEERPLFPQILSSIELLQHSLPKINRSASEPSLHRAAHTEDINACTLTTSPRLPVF

[13] = target: Calcium/calmodulin-dependent protein kinase type 1D (Homo sapiens) (UniProt Q8IU85); assay: Inhibition of CAMK1delta at 10 uM
[14] = target: Cyclin-dependent kinase 2/cyclin A (Homo sapiens) (UniProt P24941+P20248+P78396); assay: Inhibition of CDK2/cyclin A at 10 uM; format: protein-complex assay
[15] = target: Hepatocyte growth factor receptor (Homo sapiens) (UniProt P08581); assay: Inhibition of cMET at 10 uM
Chain of Hepatocyte growth factor receptor (Homo sapiens) (P08581 whole entry): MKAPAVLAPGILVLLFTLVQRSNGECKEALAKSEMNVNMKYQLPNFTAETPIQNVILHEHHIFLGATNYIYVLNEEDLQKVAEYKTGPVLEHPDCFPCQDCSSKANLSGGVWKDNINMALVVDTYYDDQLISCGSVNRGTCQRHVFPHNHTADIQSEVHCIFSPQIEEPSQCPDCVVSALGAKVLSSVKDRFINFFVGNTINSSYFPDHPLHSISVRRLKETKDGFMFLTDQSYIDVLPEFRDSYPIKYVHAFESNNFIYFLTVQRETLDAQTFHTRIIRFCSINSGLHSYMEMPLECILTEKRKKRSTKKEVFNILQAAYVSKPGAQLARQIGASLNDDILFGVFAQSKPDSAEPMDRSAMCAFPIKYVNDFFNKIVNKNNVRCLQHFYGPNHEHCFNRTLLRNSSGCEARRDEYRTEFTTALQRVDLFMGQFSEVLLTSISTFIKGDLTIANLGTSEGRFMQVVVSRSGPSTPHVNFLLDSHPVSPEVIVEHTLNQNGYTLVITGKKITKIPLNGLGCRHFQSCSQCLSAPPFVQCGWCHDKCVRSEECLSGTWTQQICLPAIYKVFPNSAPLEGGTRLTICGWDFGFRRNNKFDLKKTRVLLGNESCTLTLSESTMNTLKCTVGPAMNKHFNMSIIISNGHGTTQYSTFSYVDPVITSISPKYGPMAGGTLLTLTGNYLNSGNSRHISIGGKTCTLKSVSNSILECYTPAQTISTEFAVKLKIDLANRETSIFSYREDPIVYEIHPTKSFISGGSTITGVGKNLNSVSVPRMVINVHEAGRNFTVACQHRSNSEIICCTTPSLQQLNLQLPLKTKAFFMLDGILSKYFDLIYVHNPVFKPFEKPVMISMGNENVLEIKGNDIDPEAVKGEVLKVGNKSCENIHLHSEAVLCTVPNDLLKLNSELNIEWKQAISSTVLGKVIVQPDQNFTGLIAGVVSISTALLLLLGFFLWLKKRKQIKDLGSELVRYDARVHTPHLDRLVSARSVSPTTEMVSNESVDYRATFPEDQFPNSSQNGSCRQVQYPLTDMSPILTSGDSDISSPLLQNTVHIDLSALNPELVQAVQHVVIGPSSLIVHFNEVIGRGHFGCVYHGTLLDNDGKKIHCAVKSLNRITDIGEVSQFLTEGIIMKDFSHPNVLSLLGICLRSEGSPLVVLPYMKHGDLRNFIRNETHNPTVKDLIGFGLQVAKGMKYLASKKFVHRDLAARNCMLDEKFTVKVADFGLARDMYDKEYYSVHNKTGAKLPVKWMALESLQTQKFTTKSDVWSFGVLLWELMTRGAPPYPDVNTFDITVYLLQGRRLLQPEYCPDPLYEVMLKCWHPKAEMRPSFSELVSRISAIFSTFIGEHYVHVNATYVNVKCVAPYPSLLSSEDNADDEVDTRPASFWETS

[16] = target: Proto-oncogene tyrosine-protein kinase Src (Homo sapiens) (UniProt P12931); assay: Inhibition of cSRC at 10 uM
[17] = target: Epidermal growth factor receptor (Homo sapiens) (UniProt P00533); assay: Inhibition of EGFR at 10 uM
Chain of Epidermal growth factor receptor (Homo sapiens) (P00533 whole entry): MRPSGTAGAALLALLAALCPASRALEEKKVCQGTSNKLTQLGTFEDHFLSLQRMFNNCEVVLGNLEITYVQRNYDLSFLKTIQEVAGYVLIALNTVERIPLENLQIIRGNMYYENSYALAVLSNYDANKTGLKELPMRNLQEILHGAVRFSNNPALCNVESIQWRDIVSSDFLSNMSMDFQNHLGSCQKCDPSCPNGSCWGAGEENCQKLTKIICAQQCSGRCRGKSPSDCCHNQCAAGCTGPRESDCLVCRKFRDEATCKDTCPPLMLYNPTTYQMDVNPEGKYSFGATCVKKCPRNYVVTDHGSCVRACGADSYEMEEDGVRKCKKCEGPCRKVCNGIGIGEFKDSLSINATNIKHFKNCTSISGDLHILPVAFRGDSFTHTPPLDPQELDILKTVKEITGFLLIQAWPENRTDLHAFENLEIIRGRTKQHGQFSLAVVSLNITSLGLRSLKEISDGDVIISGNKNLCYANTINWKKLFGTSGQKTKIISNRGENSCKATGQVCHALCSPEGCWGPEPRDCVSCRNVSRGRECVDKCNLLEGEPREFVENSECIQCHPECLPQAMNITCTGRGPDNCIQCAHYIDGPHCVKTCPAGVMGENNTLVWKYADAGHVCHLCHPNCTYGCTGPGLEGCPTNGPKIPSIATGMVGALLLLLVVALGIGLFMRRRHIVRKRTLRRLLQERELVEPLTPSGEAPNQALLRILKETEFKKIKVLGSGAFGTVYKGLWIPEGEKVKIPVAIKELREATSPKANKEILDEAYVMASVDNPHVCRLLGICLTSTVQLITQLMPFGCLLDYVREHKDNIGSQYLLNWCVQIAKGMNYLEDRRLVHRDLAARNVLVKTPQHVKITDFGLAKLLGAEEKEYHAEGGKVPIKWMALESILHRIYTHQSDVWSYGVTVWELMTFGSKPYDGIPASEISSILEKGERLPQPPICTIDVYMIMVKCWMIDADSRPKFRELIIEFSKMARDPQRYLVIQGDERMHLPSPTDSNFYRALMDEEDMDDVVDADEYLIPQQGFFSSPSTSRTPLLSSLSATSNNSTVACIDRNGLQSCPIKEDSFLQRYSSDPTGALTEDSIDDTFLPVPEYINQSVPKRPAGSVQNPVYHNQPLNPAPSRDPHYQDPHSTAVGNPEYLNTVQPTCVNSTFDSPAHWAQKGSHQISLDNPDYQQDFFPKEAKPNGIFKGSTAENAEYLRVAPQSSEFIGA

[18] = target: Glycogen synthase kinase-3 beta (Homo sapiens) (UniProt P49841); assay: Inhibition of GSK3beta at 10 uM
[19] = target: Insulin receptor (Homo sapiens) (UniProt P06213); assay: Inhibition of IR at 10 uM
[20] = target: T1, Tyrosine-protein kinase JAK3 (Homo sapiens) (UniProt P52333); assay: Inhibition of JAK3 at 10 uM
T1 sequence (whole entry): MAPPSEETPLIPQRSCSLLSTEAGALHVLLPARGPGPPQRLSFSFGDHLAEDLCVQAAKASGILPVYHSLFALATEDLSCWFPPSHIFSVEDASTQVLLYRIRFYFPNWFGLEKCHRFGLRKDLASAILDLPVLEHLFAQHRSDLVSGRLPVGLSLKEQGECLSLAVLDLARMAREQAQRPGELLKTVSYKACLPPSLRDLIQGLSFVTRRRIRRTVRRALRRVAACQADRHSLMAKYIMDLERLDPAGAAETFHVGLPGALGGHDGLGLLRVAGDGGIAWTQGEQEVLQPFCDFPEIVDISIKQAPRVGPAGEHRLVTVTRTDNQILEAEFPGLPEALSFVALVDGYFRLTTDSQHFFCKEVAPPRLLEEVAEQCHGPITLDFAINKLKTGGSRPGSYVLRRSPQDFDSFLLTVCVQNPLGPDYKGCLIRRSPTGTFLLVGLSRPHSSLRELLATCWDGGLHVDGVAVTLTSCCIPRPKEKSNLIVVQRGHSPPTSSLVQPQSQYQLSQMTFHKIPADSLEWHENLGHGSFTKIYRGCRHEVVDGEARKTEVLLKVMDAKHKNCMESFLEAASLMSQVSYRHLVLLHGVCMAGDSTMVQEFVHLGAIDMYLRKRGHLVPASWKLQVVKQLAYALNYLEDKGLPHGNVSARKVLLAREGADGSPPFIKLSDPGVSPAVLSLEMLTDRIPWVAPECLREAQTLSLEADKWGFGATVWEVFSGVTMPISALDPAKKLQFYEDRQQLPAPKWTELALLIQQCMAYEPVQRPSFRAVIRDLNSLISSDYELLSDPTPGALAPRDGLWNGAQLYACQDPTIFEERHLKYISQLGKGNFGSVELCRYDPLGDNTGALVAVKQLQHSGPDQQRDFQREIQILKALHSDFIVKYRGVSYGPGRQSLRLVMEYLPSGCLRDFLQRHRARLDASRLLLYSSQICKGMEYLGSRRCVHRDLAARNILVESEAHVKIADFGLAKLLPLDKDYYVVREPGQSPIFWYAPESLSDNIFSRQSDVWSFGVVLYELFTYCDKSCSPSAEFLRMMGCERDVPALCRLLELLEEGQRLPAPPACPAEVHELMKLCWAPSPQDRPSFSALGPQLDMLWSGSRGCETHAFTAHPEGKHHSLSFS

[21] = target: Mitogen-activated protein kinase 14 (Homo sapiens) (UniProt Q16539); assay: Inhibition of p38alpha at 10 uM
[22] = target: Platelet-derived growth factor receptor beta (Homo sapiens) (UniProt P09619); assay: Inhibition of PDGFRbeta at 10 uM
[23] = target: Protein kinase C alpha type (Homo sapiens) (UniProt P17252); assay: Inhibition of PKCalpha at 10 uM
[24] = target: Serine/threonine-protein kinase PLK3 (Homo sapiens) (UniProt Q9H4B4); assay: Inhibition of PLK3 at 10 uM
Chain of Serine/threonine-protein kinase PLK3 (Homo sapiens) (Q9H4B4 whole entry, looked up): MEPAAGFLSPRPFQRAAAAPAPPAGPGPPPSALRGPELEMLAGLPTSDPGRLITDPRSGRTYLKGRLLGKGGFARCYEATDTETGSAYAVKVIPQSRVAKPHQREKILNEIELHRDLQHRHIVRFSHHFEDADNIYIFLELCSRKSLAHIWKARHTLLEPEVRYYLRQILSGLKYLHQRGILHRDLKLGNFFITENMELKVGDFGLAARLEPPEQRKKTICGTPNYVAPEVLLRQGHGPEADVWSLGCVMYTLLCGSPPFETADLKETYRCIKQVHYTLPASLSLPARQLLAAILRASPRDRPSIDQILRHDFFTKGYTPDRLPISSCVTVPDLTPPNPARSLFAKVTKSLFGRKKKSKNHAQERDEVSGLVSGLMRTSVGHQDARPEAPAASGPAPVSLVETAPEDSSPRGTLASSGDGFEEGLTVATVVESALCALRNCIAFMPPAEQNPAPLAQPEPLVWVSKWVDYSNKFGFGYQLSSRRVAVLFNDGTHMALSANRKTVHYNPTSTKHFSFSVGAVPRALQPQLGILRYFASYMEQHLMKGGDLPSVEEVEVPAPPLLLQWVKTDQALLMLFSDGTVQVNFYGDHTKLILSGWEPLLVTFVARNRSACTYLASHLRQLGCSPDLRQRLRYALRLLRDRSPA

[25] = target: Tyrosine-protein kinase SYK (Homo sapiens) (UniProt P43405); assay: Inhibition of Syk at 10 uM
[26] = target: Angiopoietin-1 receptor (Homo sapiens) (UniProt Q02763); assay: Inhibition of Tie2 at 10 uM
[27] = Inhibition of cytochrome P450 at 10 uM; format: ADME
[28] = target: 3-phosphoinositide-dependent protein kinase 1 (Homo sapiens) (UniProt O15530); assay: Inhibition of PDK1 at 10 uM

Chain of Dual specificity mitogen-activated protein kinase kinase 1 (Q02750 whole entry): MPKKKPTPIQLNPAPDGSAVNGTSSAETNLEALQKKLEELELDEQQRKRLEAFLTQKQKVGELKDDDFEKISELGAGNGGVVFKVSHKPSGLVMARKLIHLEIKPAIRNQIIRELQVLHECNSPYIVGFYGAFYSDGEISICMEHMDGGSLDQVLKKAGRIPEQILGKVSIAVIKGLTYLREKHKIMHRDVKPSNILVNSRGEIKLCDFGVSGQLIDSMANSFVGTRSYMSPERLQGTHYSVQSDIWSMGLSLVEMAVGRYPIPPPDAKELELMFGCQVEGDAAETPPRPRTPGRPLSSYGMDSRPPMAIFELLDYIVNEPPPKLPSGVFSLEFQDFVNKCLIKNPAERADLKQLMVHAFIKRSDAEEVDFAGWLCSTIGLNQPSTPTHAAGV

- IC50 [1]: 36 nM
- half-life [4]: 1.78 h
- half-life [5]: 2.5 h
- clearance [6]: 15.6 mL/min/kg
- AUC/dose [7]: 512 ng·h/mL/mg/kg
- Vd [8]: 1.19 L/kg
- bioavailability [9]: 51%
- inhibition [10]: inactive
- inhibition [11]: inactive
- inhibition [12]: inactive
- inhibition [13]: inactive
- inhibition [14]: inactive
- inhibition [15]: inactive
- inhibition [16]: inactive
- inhibition [17]: inactive
- inhibition [18]: inactive
- inhibition [19]: inactive
- inhibition [20]: inactive
- inhibition [21]: inactive
- inhibition [22]: inactive
- inhibition [23]: inactive
- inhibition [24]: inactive
- inhibition [25]: inactive
- inhibition [26]: inactive
- inhibition (INH) [27]: Not Active
- inhibition [28]: inactive
SMILES: C#Cc1ccc(Nc2c(C(=O)NOCCO)c3c(n2C)C(=O)CC3)c(F)c1
- EC50 [2]: 17 nM
- EC50 [3]: 34 nM

- IC50 [1]: 14 nM
- half-life [4]: 0.0617 h
- half-life [5]: 0.0917 h
SMILES: Cn1c(Nc2ccc(I)cc2F)c(C(=O)NOCCO)c2c1C(=O)CCC2
- EC50 [2]: 1 nM
- EC50 [3]: 1 nM

- IC50 [1]: 17 nM
- half-life [4]: 0.367 h
- half-life [5]: 0.6 h
SMILES: Cn1c(Nc2ccc(I)cc2F)c(C(=O)NOC[C@@H](O)CO)c2c1C(=O)CCC2
- EC50 [2]: 2 nM
- EC50 [3]: 2.5 nM

- IC50 [1]: 18 nM
- half-life [4]: 0.417 h
- half-life [5]: 0.333 h
SMILES: Cn1c(Nc2ccc(Br)cc2F)c(C(=O)NOCCO)c2c1C(=O)CCC2
- EC50 [2]: 34 nM
- EC50 [3]: 31 nM

- IC50 [1]: 41 nM
- half-life [4]: > 3.33 h
- half-life [5]: > 3.33 h
SMILES: C#Cc1ccc(Nc2c(C(=O)NOC[C@H](O)CO)c3c(n2C)C(=O)CCC3)c(F)c1
- EC50 [2]: 62 nM
- EC50 [3]: 72 nM

- half-life [4]: 0.167 h
- half-life [5]: 0.233 h
SMILES: Cn1c(Nc2ccc(I)cc2F)c(C(=O)NOCCO)c2c1C(=O)CC2
- EC50 [2]: 2 nM
- EC50 [3]: 4 nM

- IC50 [1]: 52 nM
- half-life [4]: 1.57 h
- half-life [5]: 1.42 h
SMILES: Cn1c(Nc2ccc(Br)cc2F)c(C(=O)NOC[C@H](O)CO)c2c1C(=O)CCC2
- EC50 [2]: 58 nM
- EC50 [3]: 72 nM

- IC50 [1]: 20 nM
- half-life [4]: 0.6 h
- half-life [5]: 0.433 h
- clearance [6]: 23.7 mL/min/kg
- AUC/dose [7]: 88 ng·h/mL/mg/kg
- Vd [8]: 1.16 L/kg
- bioavailability [9]: 12%
- inhibition [10]: inactive
- inhibition [11]: inactive
- inhibition [12]: inactive
- inhibition [13]: inactive
- inhibition [14]: inactive
- inhibition [15]: inactive
- inhibition [16]: inactive
- inhibition [17]: inactive
- inhibition [18]: inactive
- inhibition [19]: inactive
- inhibition [20]: inactive
- inhibition [21]: inactive
- inhibition [22]: inactive
- inhibition [23]: inactive
- inhibition [24]: inactive
- inhibition [25]: inactive
- inhibition [26]: inactive
- inhibition (INH) [27]: Not Active
- inhibition [28]: inactive
SMILES: Cn1c(Nc2ccc(I)cc2F)c(C(=O)NOC[C@H](O)CO)c2c1C(=O)CCC2
- EC50 [2]: 2.5 nM
- EC50 [3]: 3 nM

- IC50 [1]: 39 nM
- half-life [4]: > 3.33 h
- half-life [5]: > 3.33 h
SMILES: O=C(NOC[C@H](O)CO)c1c(Nc2ccc(I)cc2F)c(F)c(=O)n2c1CCC2
- EC50 [2]: 27 nM
- EC50 [3]: 69 nM

- IC50 [1]: 109 nM
- half-life [4]: 0.783 h
- half-life [5]: 0.9 h
SMILES: O=C(NOCCO)c1c(Nc2ccc(I)cc2F)c(Cl)c(=O)n2c1CCC2
- EC50 [2]: 3 nM
- EC50 [3]: 5 nM

- half-life [4]: 2.23 h
- half-life [5]: 1.03 h
SMILES: O=C(NOCCO)c1c(Nc2ccc(I)cc2F)cc(=O)n2c1CCC2
- EC50 [2]: 5 nM
- EC50 [3]: 13 nM

- IC50 [1]: 11 nM
- half-life [4]: 1.07 h
- half-life [5]: 0.9 h
SMILES: Cn1c(Nc2ccc(I)cc2F)c(C(=O)NOC[C@@H](O)CO)c2c1C(=O)CC2
- EC50 [2]: 5 nM
- EC50 [3]: 7 nM

- IC50 [1]: 94 nM
- half-life [4]: > 3.33 h
- half-life [5]: > 3.33 h
- inhibition [10]: inactive
- inhibition [11]: inactive
- inhibition [12]: inactive
- inhibition [13]: inactive
- inhibition [14]: inactive
- inhibition [15]: inactive
- inhibition [16]: inactive
- inhibition [17]: inactive
- inhibition [18]: inactive
- inhibition [19]: inactive
- inhibition [20]: inactive
- inhibition [21]: inactive
- inhibition [22]: inactive
- inhibition [23]: inactive
- inhibition [24]: inactive
- inhibition [25]: inactive
- inhibition [26]: inactive
- inhibition (INH) [27]: Not Active
- inhibition [28]: inactive
SMILES: O=C(NOC[C@@H](O)CO)c1c(Nc2ccc(I)cc2F)c(F)c(=O)n2c1CCC2
- EC50 [2]: 44 nM
- EC50 [3]: 139 nM

- IC50 [1]: 54 nM
- half-life [4]: 1.43 h
- half-life [5]: 0.9 h
SMILES: Cn1c(Nc2ccc(I)cc2F)c(C(=O)NOC[C@H](O)CO)c2c1C(=O)CC2
- EC50 [2]: 9 nM
- EC50 [3]: 13 nM

- IC50 [1]: 57 nM
- half-life [4]: 1.85 h
- half-life [5]: 0.683 h
SMILES: O=C(NOCCO)c1c(Nc2ccc(I)cc2F)c(F)c(=O)n2c1CCCC2
- EC50 [2]: 12 nM
- EC50 [3]: 30 nM

- IC50 [1]: 69 nM
- half-life [4]: 2.13 h
- half-life [5]: > 3.33 h
SMILES: C#Cc1ccc(Nc2c(C(=O)NOCCO)c3n(c(=O)c2F)CCC3)c(F)c1
- EC50 [2]: 12 nM
- EC50 [3]: 33 nM

- AUC/dose [7]: 144 ng·h/mL/mg/kg
SMILES: CC(=O)c1cc(C(=O)NOCCO)c(Nc2ccc(I)cc2F)n1C
- EC50 [2]: 12 nM
- EC50 [3]: 14 nM

- IC50 [1]: 76 nM
- half-life [4]: 1.27 h
- half-life [5]: 1.17 h
SMILES: Cn1c(Nc2ccc(Br)cc2F)c(C(=O)NOC[C@@H](O)CO)c2c1C(=O)CCC2
- EC50 [2]: 53 nM
- EC50 [3]: 76 nM

Reference: ChEMBL document CHEMBL2010712, “Design and synthesis of orally available MEK inhibitors with potent in vivo antitumor efficacy” (Bioorg Med Chem Lett, 2012)
